According to patent US20250325534A1, “MICROBIOCIDAL TETRAHYDROISOQUINOLINE DERIVATIVES” (SYNGENTA CROP PROTECTION AG, priority 2021, published 2025):

The molecules below were run on Mycosphaerella graminicola (assay: Mycosphaerella graminicola (Septoria tritici) / liquid culture (Septoria blotch)). Conditions: Zymoseptoria tritici, 96 h, photometrically 4-5 days after application, read-out: control of Mycosphaerella graminicola.
Assay type: cell-based
Description: Example B19: Mycosphaerella graminicola (Septoria tritici)/Liquid Culture (Septoria Blotch) Conidia of the fungus from cryogenic storage are directly mixed into a nutrient broth (potato dextrose broth). After placing a DMSO solution of test compound into a microtiter plate (96-well format), the nutrient broth containing the fungal spores is added. The test plates are incubated at 24° C. and the inhibition of growth is determined photometrically 4-5 days after application.
`CCn1nc(C)c(C2CN(C(=O)c3cc(-c4ccc(F)cc4F)on3)Cc3ccccc32)c1C` (stereo not drawn) [Compound P-116, [5-(2,4-difluorophenyl)isoxazol-3-yl]-[4-(1-ethyl-3,5-dimethyl-pyrazol-4-yl)-3,4-dihydro-1H-isoquinolin-2-yl]methanone] was tested, and the inhibition of growth at 20 ppm was ≥ 80%.
`C[C@@H]1c2ccccc2[C@](C)(c2cnn(C)c2)CN1C(=O)c1cc(-c2ccc(F)cc2F)on1` (single isomer, unassigned) [Compound P-7] was tested, and the inhibition of growth at 20 ppm was ≥ 80%.
With `Cn1cc(C2CN(C(=O)c3cc(-c4c(F)cc(F)cc4F)no3)Cc3ccccc32)cn1` (stereo not drawn) [Compound P-129, [4-(1-methylpyrazol-4-yl)-3,4-dihydro-1H-isoquinolin-2-yl]-[3-(2,4,6-trifluorophenyl)isoxazol-5-yl]methanone] the inhibition of growth at 20 ppm was ≥ 80%.
With `Cn1cc(C2CN(C(=O)c3cc(-c4ccc(F)c(F)c4F)on3)Cc3ccccc32)cn1` (stereo not drawn) [Compound P-144, [4-(1-methylpyrazol-4-yl)-3,4-dihydro-1H-isoquinolin-2-yl]-[5-(2,3,4-trifluorophenyl)isoxazol-3-yl]methanone] the inhibition of growth at 20 ppm was ≥ 80%.
For `Cn1cc(C2CN(C(=O)c3coc(-c4ccc(F)cc4)n3)Cc3ccccc32)cn1` (stereo not drawn) [Compound P-69, [2-(4-fluorophenyl)oxazol-4-yl]-[4-(1-methylpyrazol-4-yl)-3,4-dihydro-1H-isoquinolin-2-yl]methanone], the inhibition of growth at 20 ppm was ≥ 80%.
With `CCC1c2ccccc2C(c2cnn(C)c2)CN1C(=O)c1cc(-c2ccccc2)on1` (stereo not drawn) [Compound P-37, [1-ethyl-4-(1-methylpyrazol-4-yl)-3,4-dihydro-1H-isoquinolin-2-yl]-(5-phenylisoxazol-3-yl)methanone] the inhibition of growth at 20 ppm was ≥ 80%.
With `Cn1cc(C2CN(C(=O)c3noc(-c4cc(F)ccc4F)n3)Cc3ccccc32)cn1` (stereo not drawn) [Compound P-90, [5-(2,5-difluorophenyl)-1,2,4-oxadiazol-3-yl]-[4-(1-methylpyrazol-4-yl)-3,4-dihydro-1H-isoquinolin-2-yl]methanone] the inhibition of growth at 20 ppm was ≥ 80%.
With `Cn1cc(C2CN(C(=O)c3cc(C(C)(C)C)on3)Cc3ccccc32)cn1` (stereo not drawn) [Compound P-195, (5-tert-butylisoxazol-3-yl)-[4-(1-methylpyrazol-4-yl)-3,4-dihydro-1H-isoquinolin-2-yl]methanone] the inhibition of growth at 20 ppm was ≥ 80%.
With `CC1c2ccc(OCC(F)(F)F)cc2C(C)(c2cnn(C)c2)CN1C(=O)c1cc(-c2ccccc2)on1` (stereo not drawn) [Compound P-27, [1,4-dimethyl-4-(1-methylpyrazol-4-yl)-6-(2,2,2-trifluoroethoxy)-1,3-dihydroisoquinolin-2-yl]-(5-phenylisoxazol-3-yl)methanone] the inhibition of growth at 20 ppm was ≥ 80%.
`Cn1cc(C2CN(C(=O)c3cc(-c4cccc(F)c4F)on3)Cc3ccccc32)cn1` (stereo not drawn) [Compound P-150, [5-(2,3-difluorophenyl)isoxazol-3-yl]-[4-(1-methylpyrazol-4-yl)-3,4-dihydro-1H-isoquinolin-2-yl]methanone] was tested, and the inhibition of growth at 20 ppm was ≥ 80%.
In the case of `Cn1cc(C2CN(C(=O)c3cc(C(C)(C)C)no3)Cc3ccccc32)cn1` (stereo not drawn) [Compound P-83, (3-tert-butylisoxazol-5-yl)-[4-(1-methylpyrazol-4-yl)-3,4-dihydro-1H-isoquinolin-2-yl]methanone], the inhibition of growth at 20 ppm was ≥ 80%.
In the case of `Cn1cc(C2CN(C(=O)c3cc(-c4ccccc4)ns3)Cc3ccccc32)cn1` (stereo not drawn) [Compound P-161, [4-(1-methylpyrazol-4-yl)-3,4-dihydro-1H-isoquinolin-2-yl]-(3-phenylisothiazol-5-yl)methanone], the inhibition of growth at 20 ppm was ≥ 80%.
`Cc1c([C@H]2CN(C(=O)c3cc(-c4ccc(F)cc4F)on3)[C@@H](C)c3ccccc32)cnn1C` (racemic) [Compound P-242, [5-(2,4-difluorophenyl)isoxazol-3-yl]-[rac-(1S,4S)-4-(1,5-dimethylpyrazol-4-yl)-1-methyl-3,4-dihydro-1H-isoquinolin-2-yl]methanone] was tested, and the inhibition of growth at 20 ppm was ≥ 80%.
In the case of `CCC(C)c1cc(C(=O)N2Cc3ccccc3C(c3cnn(C)c3)C2)on1` (stereo not drawn) [Compound P-88, [4-(1-methylpyrazol-4-yl)-3,4-dihydro-1H-isoquinolin-2-yl]-(3-sec-butylisoxazol-5-yl)methanone], the inhibition of growth at 20 ppm was ≥ 80%.
For `Cn1cc(C2CN(C(=O)c3cc(C4(C)CC4)on3)Cc3ccccc32)cn1` (stereo not drawn) [Compound P-184, [5-(1-methylcyclopropyl)isoxazol-3-yl]-[4-(1-methylpyrazol-4-yl)-3,4-dihydro-1H-isoquinolin-2-yl]methanone], the inhibition of growth at 20 ppm was ≥ 80%.
In the case of `Cn1cc(C2CN(C(=O)c3cc(-c4ccc(F)cc4F)on3)Cc3cc(-c4ccccc4)ccc32)cn1` (stereo not drawn) [Compound P-21, [5-(2,4-difluorophenyl)isoxazol-3-yl]-[4-(1-methylpyrazol-4-yl)-7-phenyl-3,4-dihydro-1H-isoquinolin-2-yl]methanone], the inhibition of growth at 20 ppm was ≥ 80%.
With `Cc1nn(C)c(C)c1C1c2ccccc2CN(C(=O)c2cc(-c3ccc(F)cc3F)on2)C1C` (stereo not drawn) [Compound P-113, [5-(2,4-difluorophenyl)isoxazol-3-yl]-[3-methyl-4-(1,3,5-trimethylpyrazol-4-yl)-3,4-dihydro-1H-isoquinolin-2-yl]methanone] the inhibition of growth at 20 ppm was ≥ 80%.
In the case of `CC1c2ccc(O)cc2C(C)(c2cnn(C)c2)CN1C(=O)c1cc(-c2ccccc2)on1` (stereo not drawn) [Compound P-29, [6-hydroxy-1,4-dimethyl-4-(1-methylpyrazol-4-yl)-1,3-dihydroisoquinolin-2-yl]-(5-phenylisoxazol-3-yl)methanone], the inhibition of growth at 20 ppm was ≥ 80%.
For `Cn1cc(C2CN(C(=O)c3ncc(C4CC4)o3)Cc3ccccc32)cn1` (stereo not drawn) [Compound P-68, (5-cyclopropyloxazol-2-yl)-[4-(1-methylpyrazol-4-yl)-3,4-dihydro-1H-isoquinolin-2-yl]methanone], the inhibition of growth at 20 ppm was ≥ 80%.
With `Cn1cc(C2CN(C(=O)c3coc(-c4ccccc4)c3)Cc3ccccc32)cn1` (stereo not drawn) [Compound P-147, [4-(1-methylpyrazol-4-yl)-3,4-dihydro-1H-isoquinolin-2-yl]-(5-phenyl-3-furyl)methanone] the inhibition of growth at 20 ppm was ≥ 80%.
`Cc1c(C2CN(C(=O)c3cc(C4CC4)on3)Cc3ccccc32)cnn1C` (stereo not drawn) [Compound P-237, (5-cyclopropylisoxazol-3-yl)-[4-(1,5-dimethylpyrazol-4-yl)-3,4-dihydro-1H-isoquinolin-2-yl]methanone] was tested, and the inhibition of growth at 20 ppm was ≥ 80%.
In the case of `CCc1nnc(C(=O)N2Cc3ccccc3C(c3cnn(C)c3C)C2)s1` (stereo not drawn) [Compound P-244, [4-(1,5-dimethylpyrazol-4-yl)-3,4-dihydro-1H-isoquinolin-2-yl]-(5-ethyl-1,3,4-thiadiazol-2-yl)methanone], the inhibition of growth at 20 ppm was ≥ 80%.
For `Cc1c(C2CN(C(=O)c3cc(C4CCCC4)on3)Cc3ccccc32)cnn1C` (stereo not drawn) [Compound P-235, (5-cyclopentylisoxazol-3-yl)-[4-(1,5-dimethylpyrazol-4-yl)-3,4-dihydro-1H-isoquinolin-2-yl]methanone], the inhibition of growth at 20 ppm was ≥ 80%.
`C[C@H]1c2ccc(O)cc2[C@@H](c2cnn(C)c2)CN1C(=O)c1cc(-c2ccc(F)cc2F)on1` (racemic) [Compound P-245, [5-(2,4-difluorophenyl)isoxazol-3-yl]-[rac-(1S,4S)-6-hydroxy-1-methyl-4-(1-methylpyrazol-4-yl)-3,4-dihydro-1H-isoquinolin-2-yl]methanone] was tested, and the inhibition of growth at 20 ppm was ≥ 80%.
